Consider 16 compounds from patent US8048825B2, “Haloalkylsulfonanilide derivatives or salt thereof, herbicide comprising the derivatives as active ingredient, and use of the herbicide” (Nihon Nohyaku Co., Ltd., priority 2006, dated 2011).

What all share (assay type): in vivo
The subject of test [1] is Echinochloa crus-galli. Briefly: Herbicidal effect on paddy field weeds of post-emergence stage (Post), Test Example 2. To be noted: one-leaf stage, 1000 g/ha as active ingredient, examined after 21 days. The gist of the method: (§1)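 Post-emergence paddy test: formulated compound added to 5 cm standing water at 1000 g/ha a.i. when weeds reached one-leaf stage in clay loam pots in greenhouse. Growth inhibition rated 21 days later versus untreated control on a 0 (0%) to 5 (100%) scale.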

Test [2] has as its system Scirpus juncoides. The test is described as above. Particulars: one-leaf stage, 1000 g/ha as active ingredient, examined after 21 days. The gist of the method: as §1
The subject of test [3] is Lindernia procumbens. Described as above. Particulars: one-leaf stage, 1000 g/ha as active ingredient, examined after 21 days. The gist of the method: as §1
Test [4] relates to Scirpus juncoides. Nature of the test: Herbicidal efficacy on paddy field weeds of pre-emergence stage (Pre), Test Example 1. To be noted: 1000 g/ha as active ingredient, examined after 21 days. The gist of the method:
(§2)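 Pre-emergence paddy test: 1000 g/ha active ingredient, formulated and water-diluted, dropped onto 5 cm floodwater one day after sowing both weeds in clay loam. After 21 days in greenhouse, inhibition relative to untreated control rated on 0 (0%) to 5 (100%) scale.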

Test [5] has as its system Lindernia procumbens. Described as above. Particulars: 1000 g/ha as active ingredient, examined after 21 days. The gist of the method:
as §2

SMILES strings stand for the structures.

As for `COC(=O)N(c1ccccc1CN1CCC(C)COC1=O)S(=O)(=O)C(F)(F)F` (racemic) [2-24], the “Echinochloa crus-galli post (herbicidal effect)” value (shortened to “Echinochloa crus-galli post”) in test [1] is reported as 4 (90%-99% herbicidal effect, phytotoxicity). Further, the “Scirpus juncoides post (herbicidal effect)” value (shortened to “Scirpus juncoides post”) in test [2] was 4 (90%-99% herbicidal effect, phytotoxicity). The “Lindernia procumbens post (herbicidal effect)” value (“Lindernia procumbens post” for short) in test [3] is on record as 4 (90%-99% herbicidal effect, phytotoxicity). For the same compound, in test [4], the “Scirpus juncoides pre (herbicidal effect)” value (“Scirpus juncoides pre” for short) was 4 (90%-99% herbicidal effect, phytotoxicity). In addition, the “Lindernia procumbens pre (herbicidal effect)” value (“Lindernia procumbens pre” for short) in test [5] is 4 (90%-99% herbicidal effect, phytotoxicity).

For `O=S(=O)(Nc1ccccc1CN1CCCCOC1=S)C(F)(F)F` [2-12], in test [1], the “Echinochloa crus-galli post” value was 4 (90%-99% herbicidal effect, phytotoxicity). Further, the “Scirpus juncoides post” value in test [2] is on record as 4 (90%-99% herbicidal effect, phytotoxicity). In test [4], the “Scirpus juncoides pre” value was 4 (90%-99% herbicidal effect, phytotoxicity). In addition, in test [5], the “Lindernia procumbens pre” value is on record as 4 (90%-99% herbicidal effect, phytotoxicity).

For the compound `CC(C)COC(=O)N(c1ccccc1CN1CCCCOC1=S)S(=O)(=O)C(F)(F)F` [2-17], the “Echinochloa crus-galli post” value in test [1] is on record as 4 (90%-99% herbicidal effect, phytotoxicity). Moreover, in test [2], the “Scirpus juncoides post” value was 4 (90%-99% herbicidal effect, phytotoxicity). For the same compound, the “Scirpus juncoides pre” value in test [4] is recorded as 4 (90%-99% herbicidal effect, phytotoxicity).

On to `CC1(C(F)(F)F)CCN(Cc2ccccc2NS(=O)(=O)C(F)(F)F)C(=O)O1` (centres unmarked) [Compound 1-80], for which, in test [1], the “Echinochloa crus-galli post” value is recorded as 4 (90%-99% herbicidal effect, phytotoxicity). Also, in test [2], the “Scirpus juncoides post” value was 4 (90%-99% herbicidal effect, phytotoxicity). Moreover, in test [4], the “Scirpus juncoides pre” value is 4 (90%-99% herbicidal effect, phytotoxicity). In addition, the “Lindernia procumbens pre” value in test [5] is 4 (90%-99% herbicidal effect, phytotoxicity).

In the case of `CC(C)COC(=O)N(c1ccccc1CN1CCC(C)(C(F)(F)F)OC1=O)S(=O)(=O)C(F)(F)F` (centres unmarked) [Compound 1-85], the “Echinochloa crus-galli post” value in test [1] was 4 (90%-99% herbicidal effect, phytotoxicity). Moreover, the “Scirpus juncoides post” value in test [2] is 4 (90%-99% herbicidal effect, phytotoxicity). Also, in test [4], the “Scirpus juncoides pre” value is 4 (90%-99% herbicidal effect, phytotoxicity). The “Lindernia procumbens pre” value in test [5] is reported as 4 (90%-99% herbicidal effect, phytotoxicity).

Take `CCOCN(c1ccccc1CN1CCC(CC)(C(F)(F)F)OC1=O)S(=O)(=O)C(F)(F)F` (centres unmarked) [Compound 1-100]: the “Echinochloa crus-galli post” value in test [1] was 4 (90%-99% herbicidal effect, phytotoxicity). The “Lindernia procumbens post” value in test [3] is on record as 4 (90%-99% herbicidal effect, phytotoxicity). Further, in test [4], the “Scirpus juncoides pre” value is 4 (90%-99% herbicidal effect, phytotoxicity). Moreover, the “Lindernia procumbens pre” value in test [5] is 5 (100% herbicidal effect, phytotoxicity).

Take `CC(C)COC(=O)N(c1ccccc1CN1CCC(c2ccccc2)(C2CC2)OC1=O)S(=O)(=O)C(F)(F)F` (centres unmarked) [Compound 1-188]: the “Echinochloa crus-galli post” value in test [1] is listed as 4 (90%-99% herbicidal effect, phytotoxicity). The “Scirpus juncoides post” value in test [2] is on record as 4 (90%-99% herbicidal effect, phytotoxicity). The “Scirpus juncoides pre” value in test [4] is recorded as 4 (90%-99% herbicidal effect, phytotoxicity). For the same compound, the “Lindernia procumbens pre” value in test [5] is 4 (90%-99% herbicidal effect, phytotoxicity).

`COCN(c1ccccc1CN1CCC(c2ccccc2)(C2CC2)OC1=O)S(=O)(=O)C(F)(F)F` (centres unmarked) [Compound 1-191]: in test [1], the “Echinochloa crus-galli post” value is 4 (90%-99% herbicidal effect, phytotoxicity). Moreover, in test [5], the “Lindernia procumbens pre” value was 4 (90%-99% herbicidal effect, phytotoxicity).

Regarding `CCOC(=O)N(c1ccccc1CN1CCC(c2ccccc2)OC1=O)S(=O)(=O)C(F)(F)F` (centres unmarked) [Compound 1-241], the “Echinochloa crus-galli post” value in test [1] is 4 (90%-99% herbicidal effect, phytotoxicity). Also, the “Scirpus juncoides post” value in test [2] was 4 (90%-99% herbicidal effect, phytotoxicity). For the same compound, the “Lindernia procumbens post” value in test [3] is 5 (100% herbicidal effect, phytotoxicity). The “Lindernia procumbens pre” value in test [5] was 5 (100% herbicidal effect, phytotoxicity).

In the case of `CCOCN(c1ccccc1CN1CCC(c2ccccc2C)OC1=O)S(=O)(=O)C(F)(F)F` (centres unmarked) [Compound 1-292], the “Echinochloa crus-galli post” value in test [1] is given as 4 (90%-99% herbicidal effect, phytotoxicity). Also, in test [2], the “Scirpus juncoides post” value was 4 (90%-99% herbicidal effect, phytotoxicity). For the same compound, the “Lindernia procumbens post” value in test [3] is 5 (100% herbicidal effect, phytotoxicity). Further, the “Lindernia procumbens pre” value in test [5] is 5 (100% herbicidal effect, phytotoxicity).

In the case of `CCOCN(c1ccccc1CN1CCC(c2ccccc2C(F)(F)F)OC1=O)S(=O)(=O)C(F)(F)F` (centres unmarked) [Compound 1-303], the “Echinochloa crus-galli post” value in test [1] is recorded as 4 (90%-99% herbicidal effect, phytotoxicity). Besides, the “Scirpus juncoides post” value in test [2] is recorded as 4 (90%-99% herbicidal effect, phytotoxicity). The “Lindernia procumbens post” value in test [3] was 5 (100% herbicidal effect, phytotoxicity). Moreover, the “Lindernia procumbens pre” value in test [5] was 5 (100% herbicidal effect, phytotoxicity).

As for `CCOC(=O)N(c1ccccc1CN1CCC(C(F)(F)F)(C(F)(F)F)OC1=O)S(=O)(=O)C(F)(F)F` [Compound 1-340], the “Echinochloa crus-galli post” value in test [1] is reported as 4 (90%-99% herbicidal effect, phytotoxicity). Besides, in test [2], the “Scirpus juncoides post” value is listed as 4 (90%-99% herbicidal effect, phytotoxicity). For the same compound, in test [4], the “Scirpus juncoides pre” value is 4 (90%-99% herbicidal effect, phytotoxicity). Moreover, the “Lindernia procumbens pre” value in test [5] is recorded as 5 (100% herbicidal effect, phytotoxicity).

Turning to `Cc1ccccc1C1(C)CCN(Cc2ccccc2NS(=O)(=O)C(F)(F)F)C(=O)O1` (centres unmarked) [Compound 1-404], the “Scirpus juncoides post” value in test [2] is 4 (90%-99% herbicidal effect, phytotoxicity). Moreover, in test [3], the “Lindernia procumbens post” value is reported as 5 (100% herbicidal effect, phytotoxicity). Further, the “Scirpus juncoides pre” value in test [4] was 4 (90%-99% herbicidal effect, phytotoxicity). In test [5], the “Lindernia procumbens pre” value is listed as 5 (100% herbicidal effect, phytotoxicity).

As for `CCC1(C(F)(F)F)CCN(Cc2ccccc2N(C(=O)OCC(Cl)(Cl)Cl)S(=O)(=O)C(F)(F)F)C(=O)O1` (centres unmarked) [Compound 1-416], the “Echinochloa crus-galli post” value in test [1] is reported as 5 (100% herbicidal effect, phytotoxicity). The “Scirpus juncoides post” value in test [2] is 4 (90%-99% herbicidal effect, phytotoxicity). The “Scirpus juncoides pre” value in test [4] is 5 (100% herbicidal effect, phytotoxicity). In addition, the “Lindernia procumbens pre” value in test [5] is reported as 5 (100% herbicidal effect, phytotoxicity).

Turning to `CCOC(=O)N(c1ccccc1CN1CCC(CC)(CC(C)C)OC1=O)S(=O)(=O)C(F)(F)F` (centres unmarked) [Compound 1-419], in test [2], the “Scirpus juncoides post” value is listed as 4 (90%-99% herbicidal effect, phytotoxicity). In addition, the “Lindernia procumbens post” value in test [3] is recorded as 5 (100% herbicidal effect, phytotoxicity). Also, in test [4], the “Scirpus juncoides pre” value is on record as 5 (100% herbicidal effect, phytotoxicity). Also, in test [5], the “Lindernia procumbens pre” value is 5 (100% herbicidal effect, phytotoxicity).

As for `CCC1(CC(C)C)CCN(Cc2ccccc2N(C(=O)OCC(C)C)S(=O)(=O)C(F)(F)F)C(=O)O1` (centres unmarked) [Compound 1-422], the “Scirpus juncoides post” value in test [2] is on record as 4 (90%-99% herbicidal effect, phytotoxicity). In test [3], the “Lindernia procumbens post” value was 5 (100% herbicidal effect, phytotoxicity). In test [4], the “Scirpus juncoides pre” value is on record as 5 (100% herbicidal effect, phytotoxicity). For the same compound, the “Lindernia procumbens pre” value in test [5] is 5 (100% herbicidal effect, phytotoxicity).
